The values below come from US11478453B2, “Treatment for glioblastoma” (HADASIT MEDICAL RESEARCH SERVICES AND DEVELOPMENT LTD., priority 2016, dated 2022).

The term viability denotes the share of living cells, or the viability signal relative to a control.

For one test, the system named is A172 cells. Nature of the test: Crystal violet cell viability, A172 glioma cells. It counts as cell-based. On the procedure:
(§1) A172 and U87MG cells were cultured in DMEM-Eagle medium supplemented with 4 mmol/L L-glutamine, 100 units/ml penicillin and 100 μg/ml streptomycin, and 10% FBS Charcoal Stripped (Biological Industries, Israel). The T98G cells were cultured in Eagle's minimum essential medium supplemented with 4 mmol/L L-glutamine, 100 units/ml penicillin and 100 μg/ml streptomycin. To avoid the influence of FBS derived steroid hormone on AR, the cell media were supplemented with 10% charcoal/dextran-treated (stripped) FBS (Biological Industries). The cells were maintained in a humidified incubator at 37° C. in 5% CO2.

Another test concerns T98G cells. Nature of the test: Crystal violet cell viability, T98G glioma cells (single agents and combinations). On the procedure:
as §1
The effect of combination therapies that involve anti-AR signaling agents together with agents that target EGFR on AR modulation was examined in glial tumor cells expressing a ligand independent AR splice variant.

The test system of another test is U87MG cells. Nature of the test: Crystal violet cell viability, U87MG glioma cells. It counts as cell-based, human. Here is the method: as §1
Where [1] appears, read: Homo sapiens, 72 h, read-out: Cell viability, percentage of cells treated with DHT.
Setting [2] is: Homo sapiens, 72 h, read-out: Cell viability, percentage of cells treated with vehicle.

Regarding `CC(O)(CS(=O)(=O)c1ccc(F)cc1)C(=O)Nc1ccc(C#N)c(C(F)(F)F)c1` (stereo not shown) [bicalutamide], the viability at 20 µM is 90% in the test with A172 cells (Homo sapiens, A 172, A172, 20 uM, 72 hrs, with 10 μM DHT, read-out: Cell viability, percentage of cells treated with DHT); 90% in the test on T98G cells (setting [1]); 83% in the test with U87MG cells (Homo sapiens, U-87 MG, 20 uM, 72 hrs, with 10 μM DHT, read-out: Cell viability, percentage of cells treated with DHT). The viability at 80 µM was found to be 43% with A172 cells (Homo sapiens, A 172, A172, 80 uM, 72 hrs, with 10 μM DHT, read-out: Cell viability, percentage of cells treated with DHT); 59% with T98G cells (setting [1]); 31% with U87MG cells (Homo sapiens, U-87 MG, 80 uM, 72 hrs, with 10 μM DHT, read-out: Cell viability, percentage of cells treated with DHT).
As to `CN(C)C/C=C/C(=O)Nc1cc2c(Nc3ccc(F)c(Cl)c3)ncnc2cc1O[C@H]1CCOC1` [afatinib], in the test on T98G cells (setting [2]), the viability at 1.25 µM is 92% and the viability at 5 µM was determined as 47%.
For `C[C@]12CCC(=O)C[C@@H]1CC[C@@H]1[C@@H]2CC[C@]2(C)[C@@H](O)CC[C@@H]12` [DHT, 5α-dihydrotestosterone], the “Effect of DHT on cell viability versus vehicle” value in the test with A172 cells (A172, 10 μM DHT, vehicle 0.15% ETOH) is reported as “no effect on cell viability”; in the test with T98G cells (10 μM DHT, vehicle 0.15% ETOH), “no effect on cell viability”; in the test with U87MG cells (10 μM DHT, vehicle 0.15% ETOH) it was “no effect on cell viability”.
`C#Cc1cccc(Nc2ncnc3cc(OCCOC)c(OCCOC)cc23)c1` [erlotinib]: in the test on T98G cells (setting [2]), the viability at 1.25 µM was 94% and the viability at 10 µM is 63%.
